Some test systems named below: U-251; SW-620; NCI-H226; EKVX; MDA-MB-435; HOP-92; RPMI-8226; M14; LOX IMVI; HCC 2998; HOP-62; UO-31; NCI-H522; BT-549; UACC-62; HCT-15; SK-MEL-5; MOLT-4; Malme-3M; DMS-273.
Common to all, as to assay: NCI tumour cell line growth inhibition, 48 h

Here are results for 11 molecules from ChEMBL document CHEMBL1201862, “PubChem BioAssay data set” (2004).

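Dose response: 5 concentrations. Exposure: 48 h. Format: 96-well plates. Endpoint: linear interpolation; highest concentration if not reached. The concentration for 50% growth inhibition is given as GI50.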 Calls of active or inactive are those of the source. Rule as the data show it: active = GI50 up to about 1.1 µM and inactive = higher.

In the case of `Cc1ccc2ccccc2c1CSc1nc(N)nc2c1ncn2CC(C)C`, the GI50 with U-251 was 18.2 µM (inactive); with SW-620, 24.7 µM (inactive); in the test with NCI-H226, 7.82 µM (inactive); with EKVX it was 13.6 µM (inactive); with MDA-MB-435, 10.3 µM (inactive); with HOP-92, 17.8 µM (inactive). Besides, the GI50 in the test with RPMI-8226 was 5.65 µM (inactive); in the test on M14, 17.3 µM (inactive); in the test with LOX IMVI it was 34.8 µM (inactive); in the test on HCC 2998, 19.3 µM (inactive); in the test on HOP-62, 28.9 µM (inactive); with UO-31, 2.79 µM (inactive). Besides, the GI50 with NCI-H522 is 8.71 µM (inactive); with BT-549 it was 39.4 µM (inactive); in the test on UACC-62 it was 26.3 µM (inactive); in the test on HCT-15, 10.9 µM; with SK-MEL-5 it was 7.05 µM (inactive); in the test on MOLT-4, 4.73 µM (inactive). Besides, in the test with Malme-3M, the GI50 was 9.31 µM (inactive).

On to `CC[C@@]1(O)C(=O)OCc2c1cc1n(c2=O)Cc2cc3c(NC(=O)CN)cccc3nc2-1`, for which the GI50 is 0.0906 µM (active) with U-251; 2.07 µM (inactive) with SW-620; 0.217 µM (active) with NCI-H226; 16.6 µM (inactive) in the test on EKVX; 1.49 µM (inactive) with MDA-MB-435; 3.48 µM (inactive) in the test with HOP-92. The GI50 in the test with RPMI-8226 is 1.88 µM (inactive); in the test on M14, 0.098 µM (active); in the test on LOX IMVI it was 0.0575 µM (active); in the test on HCC 2998 it was 1.96 µM (inactive); with HOP-62, 0.109 µM (active); with UO-31, 0.191 µM (active). Moreover, the GI50 with NCI-H522 is 0.277 µM (active); in the test with BT-549 it was 0.171 µM (active); with UACC-62, 0.0506 µM (active); in the test with HCT-15 it was 8.13 µM; in the test on SK-MEL-5, 0.407 µM (active); in the test with MOLT-4, < 0.0199 µM (active). For the same molecule, the GI50 in the test on Malme-3M was 1.41 µM (inactive).

`Cc1noc(NC(=O)Nc2ccccc2F)c1C#N`: the GI50 with U-251 is 21.5 µM (inactive); with SW-620, > 100 µM (inactive); with NCI-H226 it was > 100 µM (inactive); with EKVX, 11.6 µM (inactive); with MDA-MB-435, > 100 µM (inactive); in the test with HOP-92, > 100 µM (inactive). In addition, the GI50 is > 74.8 µM (inactive) with RPMI-8226; > 24.4 µM (inactive) in the test on M14; 58.5 µM (inactive) in the test on LOX IMVI; 2.12 µM (inactive) in the test with HCC 2998; 22.3 µM (inactive) in the test with HOP-62; 0.918 µM (active) in the test with UO-31. Besides, the GI50 in the test on NCI-H522 was 7.93 µM (inactive); in the test on BT-549, > 100 µM (inactive); with UACC-62 it was > 27.4 µM (inactive); in the test with HCT-15, 55.3 µM; in the test with SK-MEL-5, 45.7 µM (inactive); in the test with MOLT-4, 48.9 µM (inactive). Also, in the test with Malme-3M, the GI50 is 28.8 µM (inactive).

With `COC1(OC)CC2CCCCC2=C(C)N1S(=O)(=O)c1ccccc1` (configuration not stated), the GI50 in the test on U-251, with SW-620, with NCI-H226, in the test with EKVX, in the test with HOP-92 and in the test on RPMI-8226 was > 100 µM (inactive) in each case. The GI50 in the test on M14, in the test with LOX IMVI, in the test with HOP-62, in the test with UO-31, in the test on DMS-273 and in the test on NCI-H522 was > 100 µM (inactive) throughout. For the same molecule, the GI50 in the test on UACC-62 was > 100 µM (inactive); in the test on HCT-15, > 100 µM; in the test with SK-MEL-5 it was > 100 µM (inactive); with MOLT-4, > 10 µM (inactive); in the test on Malme-3M, > 100 µM (inactive).

Turning to `CC1(C)CNC(c2ccc3c(c2)Cc2cc(C4=NC(C)(C)CN4)ccc2-3)=N1`, the GI50 in the test with U-251 was 22 µM (inactive); in the test with SW-620 it was 34.5 µM (inactive); with NCI-H226, 49.4 µM (inactive); in the test with EKVX, 60 µM (inactive); in the test with MDA-MB-435, 32.8 µM (inactive); with HOP-92, 90.8 µM (inactive). In addition, the GI50 is 25.2 µM (inactive) in the test with RPMI-8226; 45.1 µM (inactive) in the test with M14; 37 µM (inactive) with LOX IMVI; 26.2 µM (inactive) in the test on HCC 2998; 33.5 µM (inactive) in the test with HOP-62; > 100 µM (inactive) in the test on UO-31. Also, the GI50 is 29.9 µM (inactive) with NCI-H522; > 100 µM (inactive) with BT-549; 25.3 µM (inactive) in the test on UACC-62; > 100 µM with HCT-15; 60.7 µM (inactive) in the test with SK-MEL-5; 31.9 µM (inactive) with MOLT-4. Moreover, the GI50 with Malme-3M was 24.7 µM (inactive).

As for `COC(=O)C(=O)C(C(=O)C(=O)Nc1cc([N+](=O)[O-])ccc1[N+](=O)[O-])c1nc2ccc(C(=O)c3ccccc3)cc2nc1O` (configuration not stated), the GI50 was 33.4 µM (inactive) in the test on U-251; 28.4 µM (inactive) in the test with SW-620; 25.4 µM (inactive) with NCI-H226; 39.3 µM (inactive) with EKVX; 20.1 µM (inactive) in the test with RPMI-8226; 33.1 µM (inactive) with M14. In addition, the GI50 with LOX IMVI was 19.9 µM (inactive); in the test with HCC 2998, > 100 µM (inactive); in the test with HOP-62, 44.5 µM (inactive); in the test with UO-31, 17.4 µM (inactive); with DMS-273, 22.4 µM (inactive); with NCI-H522 it was 26.7 µM (inactive). The GI50 in the test on HCT-15 is 56.5 µM; in the test with SK-MEL-5, 18.3 µM (inactive); in the test with MOLT-4 it was 18.1 µM (inactive); in the test with Malme-3M it was 61.4 µM (inactive).

In the case of `CSc1c(C#N)c(N)nc2c(/N=N\c3ccc(Br)cc3)c(N)nn12`, the GI50 with U-251 is 6.58 µM (inactive); with SW-620, 5.64 µM (inactive); in the test with NCI-H226, 21.5 µM (inactive); in the test on EKVX, 7.78 µM (inactive); in the test with MDA-MB-435 it was 9.66 µM (inactive); with HOP-92 it was 6.81 µM (inactive). For the same molecule, the GI50 in the test with RPMI-8226 is 9.84 µM (inactive); with M14, 8.83 µM (inactive); in the test with LOX IMVI, 1.96 µM (inactive); in the test with HCC 2998, 8.87 µM (inactive); in the test with HOP-62, 11.4 µM (inactive); in the test on UO-31, 14.8 µM (inactive). The GI50 was 6.41 µM (inactive) in the test on NCI-H522; 12.4 µM (inactive) with BT-549; 7.26 µM (inactive) in the test on UACC-62; 3.5 µM with HCT-15; 18.1 µM (inactive) in the test with SK-MEL-5; 3.63 µM (inactive) in the test on MOLT-4. In the test on Malme-3M, the GI50 was 8.69 µM (inactive).

With `CCN(CC)c1ccc(/N=N/c2ccc(-c3nc4cccn(C)c-4n3)cc2)cc1`, the GI50 is 3.92 µM (inactive) in the test with U-251; 7.36 µM (inactive) in the test with SW-620; 19.8 µM (inactive) in the test on NCI-H226; 18.5 µM (inactive) in the test with EKVX; 11.7 µM (inactive) in the test on HOP-92; 2.36 µM (inactive) in the test with RPMI-8226. Further, the GI50 in the test with M14 is 9.33 µM (inactive); in the test on LOX IMVI, 2.52 µM (inactive); in the test with HOP-62 it was 10.4 µM (inactive); with UO-31, 17.1 µM (inactive); with DMS-273 it was 3.18 µM (inactive); in the test on NCI-H522, 7.11 µM (inactive). Moreover, the GI50 with UACC-62 was 11.9 µM (inactive); in the test with HCT-15, 3.75 µM; in the test on SK-MEL-5, 4.8 µM (inactive); in the test on MOLT-4, 2.23 µM (inactive); with Malme-3M it was 12.1 µM (inactive).

Turning to `CC(C)Sc1nc(C#N)cc2c1CCCC2`, the GI50 in the test with U-251 was 46.5 µM (inactive); with SW-620, 37.8 µM (inactive); in the test on NCI-H226, 40.6 µM (inactive); in the test with EKVX it was 49.4 µM (inactive); with MDA-MB-435, 47 µM (inactive); in the test with HOP-92, 33.5 µM (inactive). In addition, the GI50 with RPMI-8226 is 26.4 µM (inactive); with M14, 48.6 µM (inactive); in the test with LOX IMVI, 25.4 µM (inactive); with HCC 2998, 74.8 µM (inactive); in the test on HOP-62 it was 85.7 µM (inactive); in the test with UO-31, 47.6 µM (inactive). The GI50 in the test with NCI-H522 was 21.1 µM (inactive); in the test on BT-549, 99.1 µM (inactive); with UACC-62 it was 91.8 µM (inactive); in the test with HCT-15 it was 37.6 µM; with SK-MEL-5 it was 15.8 µM (inactive); in the test with MOLT-4, 19.5 µM (inactive). The GI50 in the test on Malme-3M is 36.1 µM (inactive).

For the molecule `COc1ccccc1-c1cc(=O)c2ccc(OC)c(OC)c2o1`, the GI50 in the test on U-251 is 46.1 µM (inactive); with SW-620, 96.2 µM (inactive); in the test with NCI-H226, > 100 µM (inactive); in the test on EKVX it was 58.7 µM (inactive); in the test on MDA-MB-435 it was 46 µM (inactive); with HOP-92 it was 28.2 µM (inactive). Besides, the GI50 in the test on RPMI-8226 was 47.6 µM (inactive); in the test with M14, 64.3 µM (inactive); in the test with LOX IMVI, 33.1 µM (inactive); in the test on HCC 2998, 52.8 µM (inactive); in the test on HOP-62, > 100 µM (inactive); in the test on UO-31, 30.2 µM (inactive). Besides, the GI50 in the test with NCI-H522 was 32.8 µM (inactive); in the test with BT-549, 76.9 µM (inactive); in the test with UACC-62, 51.5 µM (inactive); with HCT-15 it was 41.4 µM; in the test on SK-MEL-5, 27.7 µM (inactive); in the test with MOLT-4, 60.4 µM (inactive). Further, the GI50 in the test with Malme-3M was 92.5 µM (inactive).

As for `COC1=CC(=O)c2c(O)c3c(c(O)c2C1=O)CC(C)(O)OC3` (configuration not stated) [FUSARUBIN], the GI50 in the test with U-251 is 3.08 µM (inactive); with SW-620 it was 3.75 µM (inactive); with NCI-H226 it was 15.7 µM (inactive); with EKVX, 5.32 µM (inactive); with MDA-MB-435, 1.65 µM (inactive); in the test on HOP-92 it was 2.88 µM (inactive). The GI50 is 6.37 µM (inactive) in the test on RPMI-8226; 1.87 µM (inactive) in the test with M14; 2.59 µM (inactive) with LOX IMVI; 2.99 µM (inactive) in the test on HCC 2998; 3.19 µM (inactive) with HOP-62; 3.97 µM (inactive) in the test on UO-31. Also, the GI50 in the test on NCI-H522 is 2.25 µM (inactive); in the test on BT-549, 6.44 µM (inactive); in the test on UACC-62, 2.07 µM (inactive); in the test on HCT-15, 1.58 µM; with SK-MEL-5 it was 1.16 µM (inactive); in the test on MOLT-4, 2.64 µM (inactive). Moreover, in the test with Malme-3M, the GI50 is 0.653 µM (active).
